# Results as given in patent publication US20080287398A1, “COLD MENTHOL RECEPTOR-1 ANTAGONISTS” (priority 2007, published 2008).
# Several values for one entry are separate records, joined by “and”; a condition that tells them apart may be missing. Equal values may be shown once. Read-outs that look alike come from different tables or passages of the source.
# How the values were obtained:
# [1] = target: T1, canine TRPM8 (Canis lupus familiaris, UniProt Q1A7N1); assay: In vitro canine TRPM8 functional assay (Ca2+-sensitive dye, FLIPR/FDSS, icilin activation); format: cell-based; settings: HEK293 cells expressing canine TRPM8, icilin activation; for % I (0.5 μM): 0.5 μM compound; for IC50: eight-point dose-response; for inhibition at 1 µM: HEK293, 1 μM compound, read-out: % I (1 μM)
# T1 construct: expressed in transfected cells
# T1 sequence (Q1A7N1 1-1104): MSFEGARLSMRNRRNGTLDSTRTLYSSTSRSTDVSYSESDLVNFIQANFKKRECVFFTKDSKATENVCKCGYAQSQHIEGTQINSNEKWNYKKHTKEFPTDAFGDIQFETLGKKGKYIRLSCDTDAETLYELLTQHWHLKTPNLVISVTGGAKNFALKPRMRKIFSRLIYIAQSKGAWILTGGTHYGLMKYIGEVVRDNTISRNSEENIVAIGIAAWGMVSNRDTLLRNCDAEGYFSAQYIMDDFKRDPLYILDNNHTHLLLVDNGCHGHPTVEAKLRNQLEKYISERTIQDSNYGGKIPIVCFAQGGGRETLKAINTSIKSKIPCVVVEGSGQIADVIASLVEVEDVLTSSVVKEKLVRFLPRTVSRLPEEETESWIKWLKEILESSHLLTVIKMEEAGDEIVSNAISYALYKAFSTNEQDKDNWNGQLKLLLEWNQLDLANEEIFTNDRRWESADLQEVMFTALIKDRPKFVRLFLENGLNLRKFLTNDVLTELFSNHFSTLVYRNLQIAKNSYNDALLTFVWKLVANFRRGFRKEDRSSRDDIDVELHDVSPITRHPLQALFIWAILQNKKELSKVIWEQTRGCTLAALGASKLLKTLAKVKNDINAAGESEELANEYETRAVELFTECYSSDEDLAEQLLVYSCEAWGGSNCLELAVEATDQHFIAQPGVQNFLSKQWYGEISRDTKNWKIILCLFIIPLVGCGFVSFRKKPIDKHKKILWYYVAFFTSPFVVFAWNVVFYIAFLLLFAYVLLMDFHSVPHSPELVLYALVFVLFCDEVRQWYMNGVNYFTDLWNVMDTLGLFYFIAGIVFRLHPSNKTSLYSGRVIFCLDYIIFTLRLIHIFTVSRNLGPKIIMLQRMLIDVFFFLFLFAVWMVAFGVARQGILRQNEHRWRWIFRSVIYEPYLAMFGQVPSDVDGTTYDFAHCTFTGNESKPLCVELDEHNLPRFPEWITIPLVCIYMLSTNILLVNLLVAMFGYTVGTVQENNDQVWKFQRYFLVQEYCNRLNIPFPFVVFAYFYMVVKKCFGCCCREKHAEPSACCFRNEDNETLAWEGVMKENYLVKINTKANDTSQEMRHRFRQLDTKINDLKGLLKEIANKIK
# Outline: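 HEK293 cells stably expressing canine TRPM8, loaded with Calcium 3 dye, preincubated with compound for 5 min before icilin at a concentration giving ~80% maximal response. Ca2+ fluorescence by FLIPR or FDSS; basal-subtracted, normalized to % maximal response, quadruplicate wells, sigmoidal fit for EC50/IC50.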
# [2] = system: rats; assay: Reversal of icilin-induced behaviors (wet-dog shakes) in rats; format: in vivo; settings: rat; 30 mg/kg p.o.; 1 h post-icilin
# Method: In this paradigm, icilin-induced shaking was counted for 10 minutes followed by administration of a compound of Formula (I). The diminution of shaking behavior is represented as a percent inhibition relative to icilin-induced shakes in the absence of test compound administration, as described by the following formula: % Inhibition=[1−(WDS count following test compound dose/WDS count prior to test compound dose)]×100.
# [3] = system: Sprague-Dawley rats; assay: CFA-induced paw radiant heat hypersensitivity; format: in vivo, rat; settings: for inhibition in vivo at 30 mg/kg: read-out: % Reversal
# Method: Intraplantar injection of Complete Freund's Adjuvant (CFA) in rodents results in a long-lasting inflammatory reaction, characterized by a pronounced hypersensitivity to both thermal and mechanical stimuli. This hypersensitivity peaks between 24-72 hours following injection and can last for several weeks. […] This paradigm also may be conducted with a multiple dosing or a prophylactic dosing regime designed to alter the course of hyperalgesia development. This test predicts the analgesic, anti-allodynic and antihyperalgesic effect of numerous effective clinical agents, including NSAIDS such as acetaminophen, aspirin and ibuprofen, and opioids such as morphine.
# Each rat was placed in a test chamber on a warm glass surface and allowed to acclimate for approximately 10 minutes. A radiant thermal stimulus (beam of light) was then focused through the glass onto the plantar surface of each hind paw in turn. The thermal stimulus was automatically shut off by a photoelectric relay when the paw was moved or when the cut-off time was reached (20 seconds for radiant heat at ˜5 Amps). An initial (baseline) response latency to the thermal stimulus was recorded for each animal prior to the injection of CFA. Twenty-four hours following intraplantar CFA injection, the response latency of the animal to the thermal stimulus was then re-evaluated and compared to the animal's baseline response time. […] Immediately following the post-CFA latency assessment, test compound or vehicle (usually Solutol, hydroxypropyl methylcellulose, hydroxypropyl beta-cyclodextrin or PEG-400) was administered i.p. or p.o. to rats. […] The percent reversal (% R) of hypersenstivitiy was calculated according to the following formula:
# % Reversal=(Treatment Response-CFA Response)/(Baseline Response-CFA Response)×100.
# [4] = system: male SD rats; assay: Chronic constriction injury (CCI) model of neuropathic pain, acetone-induced hypersensitivity; format: in vivo; settings: rat
# Method: Through the mesh floor a series of five applications of acetone (0.05 mL/application) was sprayed onto the bottom of the paw using a multidose syringe device. A positive response took the form of an abrupt withdrawal or lifting of the paw. The percentage of positive responses from the five trials represented the individual's overall response that was then averaged over the entire treatment group. […] An ascending dose response relationship (as in Table 10 below) was generated by addition of successive doses of test compound followed by re-assessment of behavior.
# [5] = target: T1, canine TRPM8; assay: TRPM8 patch clamp assay (whole-cell, HEK293 cells); format: cell-based
# Method: For patch clamp experiments, HEK293 cells stably transfected with canine TRPM8 were cultured in DMEM supplemented with 10% fetal bovine serum, 100 units/ml penicillin, 100 μg/ml streptomycin and 1 mg/ml G418. Cells were maintained at 37° C. and in 5% CO2.
# The extracellular solution contained (in mM): NaCl, 132; EGTA, 1; KCl, 5.4; MgCl2, 0.8; HEPES, 10; glucose, 10; pH=7.4. Recordings were performed using the conventional whole-cell patch clamp technique, 1-2 days after plating cells onto glass coverslips at densities appropriate for single cell recording. Currents were amplified by a patch clamp amplifier and filtered at 2 kHz (Axopatch 200B, Molecular Devices, Union City, Calif.). Menthol (100 μM) was applied to the cell at 0.5 ml/min via a gravity-fed perfusion system. Recordings involving menthol activation were performed at 22° C.
# In experiments where temperatures were varied, temperature ramps were generated by cooling the perfusate in an in-line cooler (Model SC-20, Warner Instruments, Hamden, Conn.) controlled by a temperature controller (Model CL-100, Warner Instruments). The temperature in the vicinity of the recorded cell was measured with a custom-made miniature thermo-microprobe connected to a monitoring thermometer (Model TH-8, Physitemp, Clifton, N.J.), and sampled using Digidata 1322A and pClamp 9.0 (Molecular Devices), as were the currents concurrently measured in the whole-cell patch clamp mode. The current was continuously sampled (at 100 Hz) at a holding potential of −60 mV.
# Compounds were diluted from 10 mM DMSO stocks (stored at −20° C.) into an extracellular solution either containing 100 μM menthol or subjecting to cooling. Increasing concentrations of a compound were applied to a cell in a cumulative manner and concentration-dependent responses were measured after steady-state activation was achieved by either 100 μM menthol or cooling to 10° C. A saturating concentration of a reference antagonist was applied at the end of an experiment (either in the presence of 100 μM menthol or 10° C. temperature) to establish the baseline from which all the other measurements were subtracted.
# Percentage inhibition by a compound was calculated as follows: 100×(1−Icomp/I0); where Icomp and I0 are steady-state current amplitudes in either the presence or absence of a concentration of the compound.
# [6] = system: Male Sprague Dawley rats; assay: Inhibition of icilin-induced wet-dog shakes in rats; format: in vivo; settings: rat; 30 mg/kg i.p.; 15′ pre icilin; wet-dog shakes vs vehicle
# [7] = system: male CD1 mice; assay: Acetic acid graded abdominal irritant test with a 24-hour thioglycolate pretreatment; format: in vivo; settings: mouse; 30 mg/kg p.o.; time 1 h; abdominal contractions vs vehicle
# Method: A chemical irritant (such as acetic acid, kaolin, bradykinin, phenyl-p-(benzo) quinine, bromo-acetylcholine, or zymosan) is injected in mice intraperitoneally, causing a contraction of the abdominal musculature, which is characterized by an elongation of the body extending through to the hind limbs. The number of such responses is quantitated and is reduced by pretreatment of analgesic agents, thus forming the basis for a screening test (Collier H O et al. Br J Pharmacol Chemother 1968, 32(2): 295-310). This type of abdominal irritant test has been used to predict the analgesic effect of numerous clinically effective agents, the potency of which in the abdominal irritant test parallels the magnitude of the dose needed in the relief of clinical pain.
# One modification of the chemically-induced abdominal irritant model of visceral pain is to pretreat animals with agents known to induce inflammatory responses following intraperitoneal injection (such as LPS, zymosan, or thioglycolate). […] Because of the up-regulation of the TRPM8 receptor in inflammation, TRPM8 antagonists that are effective at reducing the mean number of contractions are predicted to provide antiinflammatory action in human clinical use.
# The ability of compounds of Formula (I) to mitigate chemical irritant—induced abdominal contractions following a pre-conditioning inflammatory stimulus were studied. […]
# [8] = rat, 30 mg/kg p.o., time 2 h (printed 2 h or 2)
# [9] = read-out: IC50, mode of activation Cold (10° C.), HEK293 cells stably transfected with canine TRPM8, cooling to 10° C.
# [10] = read-out: IC50, mode of activation Menthol (100 μM), HEK293 cells stably transfected with canine TRPM8, 100 μM menthol, 22° C.
# [11] = po, rat, 30 mg/kg p.o., time 1 h
# [12] = IC50, mode of activation Menthol (100 μM), HEK293 cells stably transfected with canine TRPM8, 100 μM menthol, 22° C.
compound,measurement,setting,value
(S)-[1-(3-Bromo-benzo[b]thiophen-2-yl)-2-(4-fluoro-phenyl)-ethyl]-phosphonic acid diisopropyl ester [Cpd 239],% I (0.5 μM),[1],"103, 103%"
same,IC50,[1]; read-out: IC50,0.037 µM and 0.027 µM and 0.031 µM
same,% Inhibition,[2],48.4%
same,% Reversal,[3]; [8],36%
same,% of Allodynic Baseline,"[4]; 30 mg/kg p.o., preRx 1 hr",29.4%
same,IC50,[5]; [9],0.0058 µM
same,IC50,[5]; [10],0.003 µM
"CC(C)OP(=O)(OC(C)C)C(Cc1ccc(F)c(C(F)(F)F)c1)c1sc2ccccc2c1Br (stereo not drawn) [Cpd 241, [1-(3-Bromo-benzo[b]thiophen-2-yl)-2-(4-fluoro-3-trifluoromethyl-phenyl)-ethyl]-phosphonic acid diisopropyl ester]",inhibition at 0.5 µM,"[1]; HEK293, 0.5 μM compound, read-out: % I (0.5 μM)",102%
same,inhibition at 1 µM,[1],103%
same,IC50,[1]; read-out: IC50,0.038 µM
same,inhibition in vivo at 30 mg/kg,[3]; [11],72%
same,IC50,[5]; [12],0.0016 µM
(S)-[1-(3-Bromo-benzo[b]thiophen-2-yl)-2-(4-trifluoromethoxy-phenyl)-ethyl]-phosphonic acid diisopropyl ester [Cpd 236],% I (0.5 μM),[1],"103, 103%"
same,% Inhibition,[2],36.8%
same,% Reversal,[3]; [8],25%
same,% of Allodynic Baseline,"[4]; 30 mg/kg p.o., preRx 4 hr",28.6%
same,% of Allodynic Baseline,"[4]; 100 mg/kg p.o., preRx 4 hr",68.8%
same,IC50,[5]; [9],0.0029 µM
same,IC50,[5]; [10],0.0014 µM
"CC(C)OP(=O)(OC(C)C)C(Cc1ccc(F)c(F)c1)c1sc2ccccc2c1Br (stereo not drawn) [Cpd 15, [1-(3-Bromo-benzo[b]thiophen-2-yl)-2-(3,4-difluoro-phenyl)-ethyl]-phosphonic acid diisopropyl ester]",inhibition at 1 µM,[1],99%
same,IC50,[1]; read-out: IC50,0.029 µM and 0.048 µM and 0.105 µM
same,% Inhibition,[6],71.1%
same,inhibition in vivo at 30 mg/kg,"[3]; ip, rat, 30 mg/kg i.p., time 1 h",95%
same,inhibition in vivo at 30 mg/kg,[3]; [11],82%
same,ED50,"[3]; po, rat, p.o., 3-point dose-response, 10% solutol vehicle, 1 h time point, read-out: oral ED50",11.4 mg/kg
same,% I,[7],33%
CCCP(=O)(CCC)C(OCc1ccc(F)c(F)c1)c1sc2ccccc2c1C (stereo not drawn) [Cpd 42],inhibition at 1 µM,[1],100%
same,IC50,[1]; read-out: IC50,0.15 µM and 0.14 µM
same,% Inhibition,[6],70.6%
"CC(C)OP(=O)(OC(C)C)[C@H](Cc1ccc(F)c(F)c1)c1sc2ccccc2c1Br [Cpd 235, (R)-[1-(3-Bromo-benzo[b]thiophen-2-yl)-2-(3,4-difluoro-phenyl)-ethyl]-phosphonic acid diisopropyl ester]",IC50,[1]; read-out: IC50,0.253 µM
same,inhibition in vivo at 30 mg/kg,[3]; [11],45%
same,% of Allodynic Baseline,"[4]; 30 mg/kg p.o., preRx 1 hr",34.3%
same,IC50,[5]; [12],0.0592 µM
"Cc1c(C(Cc2ccc(F)c(F)c2)P(=O)(OCC(C)(C)C)OCC(C)(C)C)sc2ccccc12 (stereo not drawn) [Cpd 53, [2-(3,4-Difluoro-phenyl)-1-(3-methyl-benzo[b]thiophen-2-yl)-ethyl]-phosphonic acid bis-(2,2-dimethyl-propyl) ester]",inhibition at 1 µM,[1],100%
same,IC50,[1]; read-out: IC50,0.22 µM and 0.26 µM
same,% Inhibition,[6],65.6%
same,inhibition in vivo at 30 mg/kg,"[3]; ip, 0.5 h, rat, 30 mg/kg i.p., time 30′",77%
same,inhibition in vivo at 30 mg/kg,"[3]; po, rat, 30 mg/kg p.o., time 2 h (printed 2 h or 2)",44%
"Cc1c(C(Cc2ccc(F)c(F)c2)P(=O)(OC(C)C)OC(C)C)sc2ncccc12 (stereo not drawn) [Cpd 34, [2-(3,4-Difluoro-phenyl)-1-(3-methyl-thieno[2,3-b]pyridin-2-yl)-ethyl]-phosphonic acid diisopropyl ester]",inhibition at 1 µM,[1],100%
same,IC50,[1]; read-out: IC50,0.12 µM and 0.15 µM and 0.2 µM
same,% Inhibition,[6],28.8%
"CCOP(=O)(OCC)C(Cc1ccc(F)cc1)c1sc2ccccc2c1Br (stereo not drawn) [Cpd 238, [1-(3-Bromo-benzo[b]thiophen-2-yl)-2-(4-fluoro-phenyl)-ethyl]-phosphonic acid diethyl ester]",inhibition at 0.5 µM,"[1]; HEK293, read-out: % I (0.5 μM), 0.5 μM compound",104%
same,IC50,[1]; IC50 (μM),0.044 µM
same,inhibition in vivo at 30 mg/kg,"[3]; Rattus norvegicus, po, 2 h",56%
same,IC50,"[5]; HEK293 cells stably transfected with canine TRPM8, 100 μM menthol, 22° C.",0.00053 µM
